Experimental data from the NIST ThermoML archive (doi:10.1016/j.jct.2010.11.011).
± gives the expanded uncertainty stated by the source.

How the values were obtained:
[1] = for mass density: 293 K, 101.33 kPa, Flotation in CCl4 and Heptane; for Triple point temperature: DTA
[2] = Molar enthalpy of transition or fusion; conditions: DSC

Question: What does the source list for `CCCCCCCCCC(=O)[O-].[Li+]` [lithium decanoate]?
Answer: mass density ([1]; Crystal 2): 1080 ± 40 kg/m3; Triple point temperature ([1]; Crystal 1): 516.6 ± 1.3 K; Molar enthalpy of transition or fusion ([2]; Crystal 1): 5.92 ± 1.43 kcal/mol

Question: For `CCCCCCCCCCCC(=O)[O-].[Li+]` [lithium dodecanoate], which mass density ([1]; Crystal 2) is on record?
Answer: 1060 ± 40 kg/m3

Question: What about the Triple point temperature ([1]; Crystal 1) of the same molecule?
Answer: 501.95 ± 1.8 K

Question: And the “Molar enthalpy of transition or fusion” value ([2]; Crystal 1)?
Answer: 6.26 ± 1.36 kcal/mol

Question: With `CCCCCCCCCCCCCCCCC(=O)[O-].[Li+]` [lithium heptadecanoate] as the molecule, how does the mass density ([1]; Crystal 2) read?
Answer: 1090 ± 40 kg/m3

Question: And the Triple point temperature ([1]; Crystal 1)?
Answer: 498.85 ± 0.59 K

Question: What about the “Molar enthalpy of transition or fusion” value ([2]; Crystal 1) of the same molecule?
Answer: 3.2 ± 0.502 kcal/mol

Question: Which results are given for `CCCCCCCCCCCCCCCC(=O)[O-].[Li+]` [lithium hexadecanoate]?
Answer: mass density ([1]; Crystal 2): 1050 ± 40 kg/m3; Triple point temperature ([1]; Crystal 1): 500.89 ± 2.8 K; Molar enthalpy of transition or fusion ([2]; Crystal 1): 3.77 ± 1.2 kcal/mol

Question: What does the source list for `CCCCCCCCCCCCCCCCCCC(=O)[O-].[Li+]` [lithium nonadecanoate]?
Answer: mass density ([1]; Crystal 2): 1080 ± 40 kg/m3; Triple point temperature ([1]; Crystal 1): 496.35 ± 1.2 K; Molar enthalpy of transition or fusion ([2]; Crystal 1): 3.69 ± 1.17 kcal/mol

Question: Which mass density ([1]; Crystal 2) does the source give for `CCCCCCCCC(=O)[O-].[Li+]` [lithium nonanoate] here?
Answer: 1120 ± 50 kg/m3

Question: And the Triple point temperature ([1]; Crystal 1)?
Answer: 524.1 ± 1.2 K

Question: And the “Molar enthalpy of transition or fusion” value ([2]; Crystal 1)?
Answer: 5.4 ± 0.406 kcal/mol

Question: Which mass density ([1]; Crystal 2) does the source give for `CCCCCCCCCCCCCCCCCC(=O)[O-].[Li+]` [lithium octadecanoate] here?
Answer: 1040 ± 40 kg/m3

Question: And the Triple point temperature ([1]; Crystal 1)?
Answer: 499.85 ± 0.59 K

Question: And the “Molar enthalpy of transition or fusion” value ([2]; Crystal 1)?
Answer: 4.05 ± 0.311 kcal/mol

Question: Which results are given for `CCCCCCCC(=O)[O-].[Li+]` [lithium octanoate]?
Answer: mass density ([1]; Crystal): 1080 ± 40 kg/m3; Triple point temperature ([1]; Crystal): 536.8 ± 0.7 K; Molar enthalpy of transition or fusion ([2]; Crystal): 5.6 ± 0.227 kcal/mol

Question: With `CCCCCCCCCCCCCCC(=O)[O-].[Li+]` [lithium pentadecanoate] as the molecule, how does the mass density ([1]; Crystal 2) read?
Answer: 1100 ± 40 kg/m3

Question: What about the Triple point temperature ([1]; Crystal 1) of the same molecule?
Answer: 501.25 ± 0.39 K

Question: What about the “Molar enthalpy of transition or fusion” value ([2]; Crystal 1) of the same molecule?
Answer: 3.86 ± 0.263 kcal/mol

Question: With `CCCCCCCCCCCCCC(=O)[O-].[Li+]` [lithium tetradecanoate] as the molecule, how does the mass density ([1]; Crystal 2) read?
Answer: 1050 ± 40 kg/m3

Question: What about the Triple point temperature ([1]; Crystal 1) of the same molecule?
Answer: 502.4 ± 1 K

Question: What about the “Molar enthalpy of transition or fusion” value ([2]; Crystal 1) of the same molecule?
Answer: 6.06 ± 8.6 kcal/mol

Question: For `CCCCCCCCCCCCC(=O)[O-].[Li+]` [lithium tridecanoate], which mass density ([1]; Crystal 2) is on record?
Answer: 1100 ± 40 kg/m3

Question: What about the Triple point temperature ([1]; Crystal 1) of the same molecule?
Answer: 504.27 ± 0.4 K

Question: And the “Molar enthalpy of transition or fusion” value ([2]; Crystal 1)?
Answer: 3.32 ± 0.55 kcal/mol

Question: Which results are given for `CCCCCCCCCCC(=O)[O-].[Li+]` [lithium undecanoate]?
Answer: mass density ([1]; Crystal 2): 1120 ± 50 kg/m3; Triple point temperature ([1]; Crystal): 507.27 ± 3.1 K; Molar enthalpy of transition or fusion ([2]; Crystal): 5.85 ± 0.203 kcal/mol
